Assay: molar heat capacity at constant pressure
Conditions: 101.33 kPa

CCC(C)CO (stereo not given) [2-methyl-1-butanol]
Conditions | molar heat capacity at constant pressure [J/K/mol]
84.68 K, Glass | 66.37
85.32 K, Glass | 66.9
86.62 K, Glass | 68.05
88.13 K, Glass | 68.63
88.55 K, Glass | 69.49
89.15 K, Glass | 69.5
90.45 K, Glass | 69.12
90.85 K, Glass | 70.72
92.36 K, Glass | 71.63
92.5 K, Glass | 69.54
92.77 K, Glass | 72.07
93.04 K, Glass | 72.48
94.27 K, Glass | 72.89
94.29 K, Glass | 72.88
94.69 K, Glass | 73.39
96.19 K, Glass | 74.2
96.22 K, Glass | 74.42
96.61 K, Glass | 74.74
98.11 K, Glass | 75.66
98.15 K, Glass | 75.92
98.53 K, Glass | 76.35
100.03 K, Glass | 77.35
100.07 K, Glass | 77.68
100.45 K, Glass | 77.93
101.96 K, Glass | 78.33
101.99 K, Glass | 78.7
102.38 K, Glass | 78.97
103.89 K, Glass | 79.44
103.92 K, Glass | 79.95
104.32 K, Glass | 80.34
105.82 K, Glass | 80.96
105.85 K, Glass | 81.54
106.25 K, Glass | 82
107.75 K, Glass | 82.7
107.79 K, Glass | 83.22
108.19 K, Glass | 83.82
109.68 K, Glass | 84.31
109.72 K, Glass | 84.61
110.13 K, Glass | 85.55
111.62 K, Glass | 86.17
111.66 K, Glass | 86.13
112.07 K, Glass | 87.55
113.54 K, Glass | 88.63
113.6 K, Glass | 88.13
114.02 K, Glass | 89.94
115.46 K, Glass | 92.53
115.54 K, Glass | 91.47
115.95 K, Glass | 93.24
117.36 K, Glass | 100.69
117.46 K, Glass | 98.77
117.87 K, Glass | 98.66
124.07 K, Liquid | 145.49
124.32 K, Liquid | 145.64
124.62 K, Liquid | 145.89
125.99 K, Liquid | 145.72
126.25 K, Liquid | 145.78
126.56 K, Liquid | 145.84
127.96 K, Liquid | 145.9
128.21 K, Liquid | 145.94
128.53 K, Liquid | 145.95
129.93 K, Liquid | 146.02
130.19 K, Liquid | 146.06
130.5 K, Liquid | 146.03
131.9 K, Liquid | 146.08
132.16 K, Liquid | 146.14
132.47 K, Liquid | 146.14
133.88 K, Liquid | 146.23
134.14 K, Liquid | 146.25
134.45 K, Liquid | 146.21
135.85 K, Liquid | 146.27
136.11 K, Liquid | 146.35
136.42 K, Liquid | 146.35
137.83 K, Liquid | 146.45
138.09 K, Liquid | 146.51
138.4 K, Liquid | 146.51
139.8 K, Liquid | 146.64
140.06 K, Liquid | 146.68
140.37 K, Liquid | 146.62
141.77 K, Liquid | 146.82
142.04 K, Liquid | 146.87
142.35 K, Liquid | 146.83
143.75 K, Liquid | 146.95
144.02 K, Liquid | 146.99
144.32 K, Liquid | 146.98
145.73 K, Liquid | 147.13
145.99 K, Liquid | 147.22
146.3 K, Liquid | 147.23
147.7 K, Liquid | 147.38
147.97 K, Liquid | 147.38
148.27 K, Liquid | 147.42
149.68 K, Liquid | 147.55
149.94 K, Liquid | 147.65
150.25 K, Liquid | 147.61
151.45 K, Liquid | 147.59
151.8 K, Liquid | 147.34
151.92 K, Liquid | 147.82
152.97 K, Liquid | 147.67
153.9 K, Liquid | 148.01
154.95 K, Liquid | 148.09
155.88 K, Liquid | 148.33
156.92 K, Liquid | 148.38
157.86 K, Liquid | 148.55
158.9 K, Liquid | 148.61
159.84 K, Liquid | 148.75
160.88 K, Liquid | 148.86
161.82 K, Liquid | 149.02
162.85 K, Liquid | 149.11
163.8 K, Liquid | 149.23
164.83 K, Liquid | 149.31
165.78 K, Liquid | 149.53
166.81 K, Liquid | 149.67
167.76 K, Liquid | 149.85
168.79 K, Liquid | 149.95
169.74 K, Liquid | 150.13
170.77 K, Liquid | 150.21
171.72 K, Liquid | 150.38
172.75 K, Liquid | 150.45
173.69 K, Liquid | 150.67
174.73 K, Liquid | 150.8
175.67 K, Liquid | 150.96
176.7 K, Liquid | 151.12
177.65 K, Liquid | 151.36
178.68 K, Liquid | 151.42
179.63 K, Liquid | 151.66
180.65 K, Liquid | 151.78
181.61 K, Liquid | 151.91
182.63 K, Liquid | 152.05
183.59 K, Liquid | 152.19
184.61 K, Liquid | 152.36
185.56 K, Liquid | 152.59
186.59 K, Liquid | 152.73
187.54 K, Liquid | 152.92
188.56 K, Liquid | 153.02
189.52 K, Liquid | 153.24
190.54 K, Liquid | 153.38
191.5 K, Liquid | 153.55
192.51 K, Liquid | 153.71
193.48 K, Liquid | 153.87
194.49 K, Liquid | 154.12
195.45 K, Liquid | 154.28
196.47 K, Liquid | 154.44
197.43 K, Liquid | 154.67
198.44 K, Liquid | 154.78
199.4 K, Liquid | 155
200.41 K, Liquid | 155.18
201.38 K, Liquid | 155.44
202.39 K, Liquid | 155.73
203.35 K, Liquid | 155.9
204.36 K, Liquid | 156.25
205.33 K, Liquid | 156.37
206.33 K, Liquid | 156.66
207.3 K, Liquid | 156.95
208.31 K, Liquid | 157.5
209.28 K, Liquid | 157.69
210.28 K, Liquid | 158.2
211.25 K, Liquid | 158.49
212.25 K, Liquid | 158.88
213.22 K, Liquid | 159.25
214.23 K, Liquid | 159.75
215.2 K, Liquid | 160.09
216.21 K, Liquid | 160.71
217.17 K, Liquid | 160.99
218.18 K, Liquid | 161.49
219.15 K, Liquid | 161.82
220.15 K, Liquid | 162.39
221.13 K, Liquid | 162.7
222.13 K, Liquid | 163.26
223.11 K, Liquid | 163.61
224.1 K, Liquid | 164.01
225.09 K, Liquid | 164.48
226.08 K, Liquid | 164.73
227.07 K, Liquid | 165.18
228.06 K, Liquid | 165.39
229.05 K, Liquid | 165.83
230.04 K, Liquid | 166.09
231.03 K, Liquid | 166.52
232.02 K, Liquid | 166.86
233.01 K, Liquid | 167.29
233.99 K, Liquid | 167.66
234.99 K, Liquid | 168.13
235.97 K, Liquid | 168.53
236.96 K, Liquid | 169
237.94 K, Liquid | 169.41
238.94 K, Liquid | 169.88
239.92 K, Liquid | 170.34
240.92 K, Liquid | 170.8
241.89 K, Liquid | 171.24
242.89 K, Liquid | 171.69
243.86 K, Liquid | 172.18
244.85 K, Liquid | 172.64
245.82 K, Liquid | 173.22
246.81 K, Liquid | 173.63
247.77 K, Liquid | 174.23
248.76 K, Liquid | 174.73
249.72 K, Liquid | 175.28
250.7 K, Liquid | 175.88
251.66 K, Liquid | 176.43
252.64 K, Liquid | 177.14
253.59 K, Liquid | 177.16
254.57 K, Liquid | 177.34
255.52 K, Liquid | 177.97
256.5 K, Liquid | 178.62
257.44 K, Liquid | 179.24
258.43 K, Liquid | 179.85
259.36 K, Liquid | 180.45
260.34 K, Liquid | 181.06
261.27 K, Liquid | 181.7
262.25 K, Liquid | 182.25
263.18 K, Liquid | 182.89
264.15 K, Liquid | 183.6
265.08 K, Liquid | 184.25
266.04 K, Liquid | 184.88
266.97 K, Liquid | 185.71
267.93 K, Liquid | 186.53
268.85 K, Liquid | 187.04
269.81 K, Liquid | 187.76
270.72 K, Liquid | 188.25
271.68 K, Liquid | 189.05
272.59 K, Liquid | 189.75
273.55 K, Liquid | 190.39
274.46 K, Liquid | 191.2
275.41 K, Liquid | 191.82
276.31 K, Liquid | 192.56
277.26 K, Liquid | 193.3
278.16 K, Liquid | 193.91
279.11 K, Liquid | 194.8
280 K, Liquid | 195.48
280.94 K, Liquid | 196.42
281.83 K, Liquid | 197.02
282.77 K, Liquid | 197.86
283.66 K, Liquid | 198.58
284.6 K, Liquid | 199.41
285.47 K, Liquid | 200.28
286.41 K, Liquid | 201.04
287.29 K, Liquid | 201.86
288.22 K, Liquid | 202.76
289.09 K, Liquid | 203.46
290.02 K, Liquid | 204.47
290.89 K, Liquid | 205.13
291.81 K, Liquid | 206.07
292.67 K, Liquid | 206.55
293.6 K, Liquid | 207.65
294.46 K, Liquid | 208.23
295.38 K, Liquid | 209.45
296.23 K, Liquid | 210.26
297.15 K, Liquid | 211.14
298 K, Liquid | 211.98
298.92 K, Liquid | 212.94
299.76 K, Liquid | 213.73
300.68 K, Liquid | 214.69

From the NIST ThermoML archive (doi:10.1021/je060411g)
